# Target: PIK3CA (human) (UniProt P42336)
# Assay: Assessment of PIK3CA Kinase Activity
# Chain of PIK3CA (human) (P42336 whole entry, looked up): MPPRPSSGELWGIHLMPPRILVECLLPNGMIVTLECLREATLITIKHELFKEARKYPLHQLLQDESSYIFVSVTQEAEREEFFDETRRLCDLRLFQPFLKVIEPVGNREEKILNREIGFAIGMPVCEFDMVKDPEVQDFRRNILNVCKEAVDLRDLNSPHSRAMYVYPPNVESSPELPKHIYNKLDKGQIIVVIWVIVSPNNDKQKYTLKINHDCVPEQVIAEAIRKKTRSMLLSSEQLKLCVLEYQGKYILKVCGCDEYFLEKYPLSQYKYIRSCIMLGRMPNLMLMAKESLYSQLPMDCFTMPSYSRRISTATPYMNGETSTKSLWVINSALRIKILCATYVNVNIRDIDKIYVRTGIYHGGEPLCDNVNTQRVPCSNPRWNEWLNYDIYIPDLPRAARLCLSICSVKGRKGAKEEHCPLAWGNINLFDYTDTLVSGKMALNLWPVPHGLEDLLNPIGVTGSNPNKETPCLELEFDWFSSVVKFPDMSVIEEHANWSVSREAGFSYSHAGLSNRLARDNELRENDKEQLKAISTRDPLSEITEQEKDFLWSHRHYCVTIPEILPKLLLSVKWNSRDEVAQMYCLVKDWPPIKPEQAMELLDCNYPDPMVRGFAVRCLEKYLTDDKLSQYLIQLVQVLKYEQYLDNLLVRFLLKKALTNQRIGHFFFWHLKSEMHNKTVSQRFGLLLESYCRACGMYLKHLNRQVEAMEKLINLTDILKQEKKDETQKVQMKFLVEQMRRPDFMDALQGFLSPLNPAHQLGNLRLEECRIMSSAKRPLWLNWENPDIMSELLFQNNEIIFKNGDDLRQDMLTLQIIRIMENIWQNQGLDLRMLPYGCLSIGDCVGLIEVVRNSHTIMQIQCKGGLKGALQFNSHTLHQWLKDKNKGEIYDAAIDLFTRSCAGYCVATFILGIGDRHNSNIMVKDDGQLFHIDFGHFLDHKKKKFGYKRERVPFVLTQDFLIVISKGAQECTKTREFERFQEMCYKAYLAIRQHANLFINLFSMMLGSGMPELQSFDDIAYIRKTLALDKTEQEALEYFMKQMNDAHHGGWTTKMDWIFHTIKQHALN
row,IC50 [µM],SMILES
1,< 1,CCN(CC)CCn1cc(-c2ccc3c(c2)OCCc2sc(-c4ncnn4CC(F)(F)F)nc2-3)cn1
2,< 1,OCCCCc1ccc2c(n1)-c1sc(-c3ncnn3-c3ccc(F)cc3F)cc1CCO2
3,< 1,CC(C)N(CCO)C(=O)c1nc2c(s1)CCOc1cc(-c3cnn(C)c3)ccc1-2
4,< 1,CO[C@@H]1CCCN(C(=O)c2nc3c(s2)CCOc2cc(-c4cn[nH]c4)ccc2-3)C1
5,< 1,O=C(c1nc2c(s1)CCOc1cc(-c3cn[nH]c3)ccc1-2)N1CCC[C@@H](C(F)(F)F)C1
6,< 1,CC(C)C(=O)N1CCN(C(=O)c2nc3c(s2)CCOc2cc(-c4cn[nH]c4)ccc2-3)CC1
7,< 1,CC(C)Oc1ncccc1-c1ccc2c(c1)-c1nc(-c3ncnn3C(C)C)sc1CCO2
8,< 1,CC(C)n1ccnc1-c1nc2c(s1)CCOc1cc(-c3cnn(CCO)c3)ccc1-2
9,< 1,CC(C)n1ncnc1-c1nc2c(s1)CCOc1ccc(-c3cccnc3F)cc1-2
10,< 1,CC(C)n1ncc(CO)c1-c1cc2c(s1)-c1nc(Cl)ccc1OCC2
11,< 1,CC(O)c1ccc2c(c1)OCCc1sc(-c3ncnn3CC(F)(F)F)nc1-2 (stereo unspecified)
12,< 1,CC(C)n1nc(N)nc1-c1nc2c(s1)CCOc1cc(C3CN(CCS(C)(=O)=O)C3)ccc1-2
13,< 1,CC(C)n1ncnc1-c1nc2c(s1)CCOc1ccc(-c3cccnc3C(F)(F)F)cc1-2
14,< 1,CC(C)N(CCO)C(=O)c1nc2c(s1)CCOc1ccc(-c3cnn(CCO)c3)cc1-2
15,< 1,CC(C)(CO)n1cc(-c2ccc3c(c2)OCCc2sc(-c4ncnn4CC(F)(F)F)nc2-3)cn1
16,< 1,CCOc1ncccc1-c1ccc2c(c1)-c1nc(-c3ncnn3C(C)C)sc1CCO2
17,< 1,CC(C)n1ncnc1-c1nc2c(s1)CCOc1cc(C3CN(CCS(=O)(=O)N4CC(F)(F)C4)C3)ccc1-2
18,< 1,Cc1nn(C(C)C)c(=O)n1-c1nc2c(s1)CCOc1cc(-c3cnn(CC(C)(C)O)c3)ccc1-2
19,< 1,CC(C)n1ncnc1-c1nc2c(s1)CCOc1cc(C3CCN(CC(=O)NC(C)(C)C)CC3)ccc1-2
20,< 1,CC(C)N(CCO)C(=O)c1nc2c(s1)CCOc1cc(-c3cnc(N4CCN(C)CC4)nc3)ccc1-2
21,< 1,Cc1cncc(-c2ccc3c(c2)-c2nc(-c4ncnn4C(C)C)sc2CCO3)c1
22,< 1,CC(C)n1ncnc1-c1nc2c(s1)CCOc1cc(C3CCN(CC(N)=O)CC3)ccc1-2
23,< 1,CC(C)n1ncnc1-c1nc2c(s1)CCOc1cc(-c3cc[nH]c(=O)c3)ccc1-2

row,IC50 [µM],SMILES
1,< 1,CC(C)n1ncnc1-c1nc2c(s1)CCOc1cc(C3CN(CC(F)(F)F)C3)ccc1-2
2,< 1,Cn1cc(-c2ccc3c(n2)-c2sc(-c4ncnn4-c4ccc(F)cc4F)cc2CCO3)cn1
3,< 1,CC(C)(O)Cn1cc(-c2ccc3c(c2)OCCc2sc(C(=O)N(CCO)C4CCOCC4)nc2-3)cn1
4,< 1,CC(C)n1ncnc1-c1nc2c(s1)CCOc1cc(C3CN(CC(N)=O)C3)ccc1-2
5,< 1,FC(F)(F)Cn1ncnc1-c1nc2c(s1)CCOc1cc(-c3cnn(CCNC4COC4)c3)ccc1-2
6,< 1,CN1CC(Nc2ccc3c(n2)-c2sc(-c4ncnn4-c4ccc(F)cc4F)cc2CCO3)C1
7,< 1,Cc1nc(-c2nc3c(s2)CCOc2cc(-c4cn(CCO)cn4)ccc2-3)n(C(C)C)n1
8,< 1,CC(C)(C(=O)O)n1cc(-c2ccc3c(c2)OCCc2sc(-c4ncnn4CC(F)(F)F)nc2-3)cn1
9,< 1,CC(C)(O)Cn1cc(-c2ccc3c(c2)OCCc2sc(-c4nccn4C4COC4)nc2-3)cn1
10,< 1,CC(C)n1c(-c2nc3c(s2)CCOc2cc(-c4cnn(CC5(C)COC5)c4)ccc2-3)n[nH]c1=O
11,< 1,CC(C)N(CCO)C(=O)c1nc2c(s1)CCOc1cc(-c3ccc(N4CCOCC4)nc3)ccc1-2
12,< 1,CC(C)n1ncnc1-c1nc2c(s1)CCOc1cc(C3CCN(CCS(C)(=O)=O)CC3)ccc1-2
13,< 1,CC(O)C(=O)N1CC(n2ccnc2-c2nc3c(s2)CCOc2cc(-c4cnn(CC(C)(C)O)c4)ccc2-3)C1 (stereo unspecified)
14,< 1,O=C(c1nc2c(s1)CCOc1cc(-c3cn[nH]c3)ccc1-2)N1CCN(C(=O)C2CC2)CC1
15,< 1,CC1(C)C(=O)N(CCN)C(=O)N1c1nc2c(s1)CCOc1ccccc1-2
16,< 1,Cc1nc(-c2nc3c(s2)CCOc2cc([C@H]4CCCNC4)ccc2-3)n(C(C)C)n1
17,< 1,FC(F)(F)Cn1ncnc1-c1nc2c(s1)CCOc1cc(-c3ccc(NCCN4CCOCC4)nc3)ccc1-2
18,< 1,Nc1nc(-c2cc3c(s2)-c2ccc(C(=O)NC4COC4)cc2OCC3)n(-c2ccc(F)cc2F)n1
19,< 1,NC(=O)Cn1cc(-c2ccc3c(c2)OCCc2sc(-c4ncnn4CC(F)(F)F)nc2-3)cn1
20,< 1,COCCN1CCN(C(=O)c2nc3c(s2)CCOc2cc(-c4cn[nH]c4)ccc2-3)CC1
21,< 1,CN(C(=O)c1nc2c(s1)CCOc1cc(-c3cn[nH]c3)ccc1-2)C1CCS(=O)(=O)C1 (stereo unspecified)
22,< 1,CC(C)Oc1cc(-c2ccc3c(c2)-c2nc(-c4ncnn4C(C)C)sc2CCO3)ccn1
23,< 1,CN1CCN(c2ccc(-c3ccc4c(n3)-c3sc(-c5ncnn5-c5ccc(F)cc5F)cc3CCO4)cn2)CC1

row,IC50 [µM],SMILES
1,< 1,COc1ncccc1-c1ccc2c(c1)-c1nc(C(=O)N(CCO)C(C)C)sc1CCO2
2,< 1,CC(C)n1ncnc1-c1nc2c(s1)CCOc1ccc(/C=C/S(C)(=O)=O)cc1-2
3,< 1,OCCNc1ccc(-c2ccc3c(n2)-c2sc(-c4ncnn4-c4ccc(F)cc4F)cc2CCO3)cn1
4,< 1,CNC(=O)c1ccc2c(c1)OCCc1cc(C(=O)N(C)c3cc(C(=O)N4CCNCC4)ccc3Cl)sc1-2
5,< 1,CC(C)n1ncnc1-c1nc2c(s1)CCOc1ccc(C3CN(C(=O)[C@H](C)O)C3)cc1-2
6,< 1,N#CCCN(C(=O)c1nc2c(s1)CCOc1cc(-c3cn[nH]c3)ccc1-2)C1CCCC1
7,< 1,CC(C)n1ncnc1-c1nc2c(s1)CCOc1ccc(C3CN(CC(N)=O)C3)cc1-2
8,< 1,O=C(c1nc2c(s1)CCOc1cc(-c3cn[nH]c3)ccc1-2)N1CCC(F)(F)CC1
9,< 1,COc1cc(C)c(-c2ccc3c(n2)-c2sc(-c4ncnn4-c4ccc(F)cc4F)cc2CCO3)cn1
10,< 1,O=C(O)c1cccc(-c2ccc3c(c2)OCCc2sc(-c4ncnn4CC(F)(F)F)nc2-3)c1
11,< 1,CC(C)n1ncnc1-c1nc2c(s1)CCOc1ccc(C3CN(C(=O)[C@@H](C)O)C3)cc1-2
12,< 1,CN(CC(=O)N1CCOCC1)C(=O)c1nc2c(s1)CCOc1cc(-c3cn[nH]c3)ccc1-2
13,< 1,O=C(c1nc2c(s1)CCOc1cc(-c3cn[nH]c3)ccc1-2)N1CCN(c2cccnc2)CC1
14,< 1,CC(C)(O)Cn1cc(-c2ccc3c(c2)OCCc2sc(-c4nccn4C4CNC4)nc2-3)cn1
15,< 1,CC(C)n1ncnc1-c1nc2c(s1)CCOc1ccc(-c3cnn(S(=O)(=O)c4ccccc4)c3)cc1-2
16,< 1,CC(C)n1ncnc1-c1nc2c(s1)CCOc1ccc(-c3ccn(C(C)C)c(=O)c3)cc1-2
17,< 1,CNC(=O)CN1CCC(c2ccc3c(c2)OCCc2sc(-c4ncnn4C(C)C)nc2-3)CC1
18,< 1,CC(C)(O)Cn1cc(-c2ccc3c(c2)OCCc2sc(-c4ncnn4Cc4ccccn4)nc2-3)cn1
19,< 1,CC(C)n1ncnc1-c1nc2c(s1)CCOc1ccc(C(=O)NCCO)cc1-2
20,< 1,CN(C)CCN(C(=O)c1nc2c(s1)CCOc1cc(-c3cnn(CC(C)(C)O)c3)ccc1-2)C1CCCCC1
21,< 1,C[C@H](O)Cn1cc(-c2ccc3c(c2)OCCc2sc(-c4ncnn4CC(F)(F)F)nc2-3)cn1
22,< 1,Cc1ncccc1-c1ccc2c(c1)-c1nc(C(=O)N(CCO)C(C)C)sc1CCO2
23,< 1,CNC(=O)Cn1cccc(-c2ccc3c(c2)-c2nc(-c4ncnn4C(C)C)sc2CCO3)c1=O

row,IC50 [µM],SMILES
1,< 1,CC(C)(CN)n1cc(-c2ccc3c(c2)OCCc2sc(-c4ncnn4CC(F)(F)F)nc2-3)cn1
2,< 1,O=C(c1nc2c(s1)CCOc1cc(-c3cn[nH]c3)ccc1-2)N1CC(F)(F)C1
3,< 1,CC(C)(C(=O)NCCO)n1cc(-c2ccc3c(c2)OCCc2sc(-c4ncnn4CC(F)(F)F)nc2-3)cn1
4,< 1,CN(CCc1ccccc1)C(=O)c1nc2c(s1)CCOc1cc(-c3cn[nH]c3)ccc1-2
5,< 1,Fc1ccc(-n2ncnc2-c2cc3c(s2)-c2nc(NC4CNC4)ccc2OCC3)c(F)c1
6,< 1,CC(C)(O)CCc1ccc2c(n1)-c1sc(-c3ncnn3-c3ccc(F)cc3F)cc1CCO2
7,< 1,CC(C)(O)Cn1cc(-c2ccc3c(c2)OCCc2sc(-c4nccn4CC(F)(F)F)nc2-3)cn1
8,< 1,O=C(c1nc2c(s1)CCOc1cc(-c3cn[nH]c3)ccc1-2)N1CCN(C(=O)[C@H]2CCCO2)CC1
9,< 1,C[C@H]1COCCN1C(=O)c1nc2c(s1)CCOc1cc(-c3cn[nH]c3)ccc1-2
10,< 1,Cc1nc(-c2nc3c(s2)CCOc2cc(-c4cnn(C5CNC5)c4)ccc2-3)n(C(C)C)n1
11,< 1,COCC(O)Cn1cc(-c2ccc3c(c2)OCCc2sc(-c4nc(C)nn4C(C)C)nc2-3)cn1 (stereo unspecified)
12,< 1,CC(C)n1ncnc1-c1nc2c(s1)CCOc1cc(-c3cnn(CCOP(=O)(O)O)c3)ccc1-2
13,< 1,CC(C)n1ncnc1-c1nc2c(s1)CCOc1cc(C3CCN(S(C)(=O)=O)C3)ccc1-2 (stereo unspecified)
14,< 1,C[C@@H]1CN(c2ccc3c(n2)-c2sc(-c4ncnn4-c4ccc(F)cc4F)cc2CCO3)C[C@H](C)N1C(=O)C(F)(F)F
15,< 1,CN1CC(C)(C)N(c2nc3c(s2)CCOc2cc(-c4cnn(CC(C)(C)O)c4)ccc2-3)C1=O
16,< 1,Cc1nc(-c2nc3c(s2)CCOc2cc(-c4ccccc4S(N)(=O)=O)ccc2-3)n(C(C)C)n1
17,< 1,CN1CCN(C(=O)C2CCN(C(=O)c3nc4c(s3)CCOc3cc(-c5cn[nH]c5)ccc3-4)CC2)CC1
18,< 1,CC(=O)N1[C@H](C)CN(c2ccc3c(n2)-c2sc(-c4ncnn4-c4ccc(F)cc4F)cc2CCO3)C[C@@H]1C
19,< 1,CC(C)(O)Cn1cc(-c2ccc3c(c2)OCCc2sc(-c4nc(N)nn4-c4ccc(F)cc4F)nc2-3)cn1
20,< 1,CC(C)(O)Cn1cc(-c2ccc3c(c2)OCCc2sc(-c4ncnn4CCN4CCOCC4)nc2-3)cn1
21,< 1,CC(C)n1ncnc1-c1nc2c(s1)CCOc1ccc(C3CCCC3)cc1-2
22,< 1,O=C(c1nc2c(s1)CCOc1cc(-c3cn[nH]c3)ccc1-2)N1CCNCC1
